Assay results from the supplement of paper PMC10307832.

Assays:
Assay in all cases: relative viability (nuclei count vs DMSO), 5 days (fraction); higher = more cells survive
Erlotinib + Alpelisib = compound: C#Cc1cccc(Nc2ncnc3cc(OCCOC)c(OCCOC)cc23)c1 [Erlotinib] + Cc1nc(NC(=O)N2CCC[C@H]2C(N)=O)sc1-c1ccnc(C(C)(C)C(F)(F)F)c1 [Alpelisib] (partner 2 µM)
In short: (§1)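 Relative viability divides the nuclei count in treated wells by that in vehicle wells. Lung cancer cell lines were seeded in 1536-well plates, dosed by pin tool the next day, and fixed and stained after 5 days in one step with final 0.05% Triton X-100, 1% formaldehyde and 1 ug/ml Hoechst. Dosing was a single drug or a fixed anchor-drug dose plus five library-drug doses (not always all listed) in √10 steps, and values are medians of duplicate plates imaged at 4×.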

AT9283 + Palbociclib = compound: O=C(Nc1c[nH]nc1-c1nc2ccc(CN3CCOCC3)cc2[nH]1)NC1CC1 [AT9283] + CC(=O)c1c(C)c2cnc(Nc3ccc(N4CCNCC4)cn3)nc2n(C2CCCC2)c1=O [Palbociclib] (partner 0.5 µM)
In short: as §1

Erlotinib + Pemetrexed = compound: C#Cc1cccc(Nc2ncnc3cc(OCCOC)c(OCCOC)cc23)c1 [Erlotinib] + Nc1nc2[nH]cc(CCc3ccc(C(=O)N[C@@H](CCC(=O)O)C(=O)O)cc3)c2c(=O)[nH]1 [Pemetrexed] (partner 0.2 µM)
In short: as §1

Phenformin = compound: N=C(N)NC(=N)NCCc1ccccc1 [Phenformin] (anchor plate); details: 250 µM
In short: (§2)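 Vehicle-anchored 1536-well plates of lung cancer cell lines, held overnight at 37 °C, were pinned with five library-drug doses (not always all listed) spaced by √10. No medium change followed over the next 5 days, after which the cells were fixed, permeabilised and Hoechst-stained together and imaged at 4×. Nuclei were counted with MetaXpress, and viability is treated-well nuclei over vehicle-well nuclei, taken as a median across plates. Plates passed with control CV below 25% and at least one doubling.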

Erlotinib = compound: C#Cc1cccc(Nc2ncnc3cc(OCCOC)c(OCCOC)cc23)c1 [Erlotinib]
In short: as §2

AT9283 = compound: O=C(Nc1c[nH]nc1-c1nc2ccc(CN3CCOCC3)cc2[nH]1)NC1CC1 [AT9283]
In short: as §2

**Q.** With NCI-H441 as the cell line, how does the relative viability (Erlotinib + Alpelisib; first compound 0.02 µM) read?
**A.** 0.688

**Q.** And the relative viability (Erlotinib + Alpelisib; first compound 0.2 µM)?
**A.** 0.655

**Q.** And the relative viability (Erlotinib + Alpelisib; first compound 0.6325 µM)?
**A.** 0.743

**Q.** And the relative viability (Erlotinib + Alpelisib; first compound 2 µM)?
**A.** 0.466

**Q.** And the relative viability (AT9283 + Palbociclib; first compound 0.003 µM)?
**A.** 0.247

**Q.** What about the relative viability (AT9283 + Palbociclib; first compound 0.03 µM) of the same cell line?
**A.** 0.236

**Q.** What about the relative viability (AT9283 + Palbociclib; first compound 0.09487 µM) of the same cell line?
**A.** 0.205

**Q.** What about the relative viability (AT9283 + Palbociclib; first compound 0.3 µM) of the same cell line?
**A.** 0.175

**Q.** What about the relative viability (Erlotinib + Pemetrexed; first compound 0.02 µM) of the same cell line?
**A.** 0.284

**Q.** And the relative viability (Erlotinib + Pemetrexed; first compound 0.2 µM)?
**A.** 0.275

**Q.** And the relative viability (Erlotinib + Pemetrexed; first compound 0.6325 µM)?
**A.** 0.259

**Q.** What about the relative viability (Erlotinib + Pemetrexed; first compound 2 µM) of the same cell line?
**A.** 0.275

**Q.** What about the relative viability (Phenformin) of the same cell line?
**A.** 0.87

**Q.** And the relative viability (Erlotinib; 0.2 µM)?
**A.** 1.1

**Q.** What about the relative viability (Erlotinib; 0.6325 µM) of the same cell line?
**A.** 1.05

**Q.** What about the relative viability (Erlotinib; 2 µM) of the same cell line?
**A.** 0.848

**Q.** What about the relative viability (AT9283; 0.003 µM) of the same cell line?
**A.** 1.09

**Q.** What about the relative viability (AT9283; 0.03 µM) of the same cell line?
**A.** 0.856

**Q.** And the relative viability (AT9283; 0.09487 µM)?
**A.** 0.37

**Q.** What about the relative viability (AT9283; 0.3 µM) of the same cell line?
**A.** 0.337
